Measured values taken from the NIST ThermoML archive (doi:10.1016/j.jct.2009.05.013).
Where “and” joins values, the source holds several entries; their conditions need not be identical. Identical values can stand only once.

Settings: Crystal, Calculated from knudsen effusion weight loss

Nc1cc(Cl)c(Cl)cc1[N+](=O)[O-] [4,5-dichloro-2-nitrobenzenamine]
Settings | vapor or sublimation pressure
351.32 K | 0.000199 kPa and 0.000196 kPa and 0.000193 kPa
353.21 K | 0.000251 kPa and 0.000243 kPa and 0.000239 kPa
355.25 K | 0.000288 kPa and 0.000286 kPa
357.24 K | 0.000364 kPa and 0.000355 kPa
359.42 K | 0.000463 kPa and 0.000453 kPa and 0.000452 kPa
361.45 K | 0.000565 kPa and 0.000558 kPa and 0.000552 kPa
363.23 K | 0.000665 kPa and 0.000673 kPa and 0.000675 kPa
365.49 K | 0.000831 kPa and 0.000843 kPa and 0.000807 kPa
367.38 K | 0.000995 kPa and 0.000996 kPa and 0.000976 kPa
